Experimental data as given in publication PMC9578392, “Safety, Tolerability, and Pharmacokinetics of the Novel Antiviral Agent Ensitrelvir Fumaric Acid, a SARS-CoV-2 3CL Protease Inhibitor, in Healthy Adults” (Antimicrobial Agents and Chemotherapy, 2022).

Assay: Treatment-emergent adverse events, single dose (part 1)
Format: in vivo, human
Procedure: In part 1, Japanese participants were randomized to receive placebo or single dose of ensitrelvir (20, 70, 250, 500, 1,000, and 2,000 mg given to cohorts A, B, C, D, E, and J, respectively), suspended in 0.5% methylcellulose, in the fasted state. Additionally, in cohort C, the effect of food on the pharmacokinetics of ensitrelvir was investigated in a 2-group, 2-period crossover design by administering placebo or ensitrelvir (250 mg) in the fasted or fed (high-fat/high-calorie) state. In part 2, Japanese participants were randomized to receive placebo or multiple doses of ensitrelvir, suspended in 0.5% methylcellulose. The multiple-dose regimens were as follows: once-daily doses of ensitrelvir 375 mg on day 1 and 125 mg on days 2 to 5 (cohort F), or 750 mg on day 1 and 250 mg on days 2 to 6 (cohort G) in the fasted state. White participants were randomized to receive placebo or multiple doses of ensitrelvir. The multiple-dose regimens were as follows: once-daily doses of ensitrelvir 375 mg on day 1 and 125 mg on days 2 to 5 (cohort H). Each cohort included 11 participants. In cohort G, the effect of ensitrelvir on the pharmacokinetics of midazolam (syrup) was evaluated in an open label self-controlled crossover design. Midazolam 2 mg alone was administered 2 days prior to initiating ensitrelvir administration (on day −2) and midazolam was coadministered on day 6 with placebo or ensitrelvir in the fasted state to participants following once-daily doses for 5 days of placebo (days 1 to 5) or ensitrelvir (750 mg on day 1 and 250 mg on days 2–5).
The nature, frequency, and severity of TEAEs were evaluated and recorded.

[1] = Cohort A 20 mg single dose, n = 6
[2] = Cohort B 70 mg single dose, n = 6
[3] = Cohort C (fasted) 250 mg single dose, n = 8
[4] = Cohort D 500 mg single dose, n = 6
[5] = Cohort E 1,000 mg single dose, n = 6
[6] = Cohort J 2,000 mg single dose, n = 6

Compound: Cn1cnc(Cn2c(=O)[nH]/c(=N\c3cc4cn(C)nc4cc3Cl)n(Cc3cc(F)c(F)cc3F)c2=O)n1 [Ensitrelvir, ensitrelvir fumaric acid]
- Abdominal pain, Events [1]: 0
- Abdominal pain, n (%) [1]: 0
- Chills, Events [1]: 0
- Chills, n (%) [1]: 0
- Feces soft, Events [1]: 0
- Feces soft, n (%) [1]: 0
- Gastrointestinal disorders, Events [1]: 0
- Gastrointestinal disorders, n (%) [1]: 0
- General disorders and administration site conditions, Events [1]: 0
- General disorders and administration site conditions, n (%) [1]: 0
- Headache, Events [1]: 0
- Headache, n (%) [1]: 0
- High density lipoprotein cholesterol decreased, Events [1]: 0
- High density lipoprotein cholesterol decreased, n (%) [1]: 0
- Investigations, Events [1]: 0
- Investigations, n (%) [1]: 0
- Nausea, Events [1]: 0
- Nausea, n (%) [1]: 0
- Nervous system disorders, Events [1]: 0
- Nervous system disorders, n (%) [1]: 0
- Participants with any TEAE, Events [1]: 0
- Participants with any TEAE, n (%) [1]: 0
- Vomiting, Events [1]: 0
- Vomiting, n (%) [1]: 0
- Abdominal pain, Events [2]: 1
- Abdominal pain, n (%) [2]: 1 (16.7)
- Chills, Events [2]: 0
- Chills, n (%) [2]: 0
- Feces soft, Events [2]: 0
- Feces soft, n (%) [2]: 0
- Gastrointestinal disorders, Events [2]: 1
- Gastrointestinal disorders, n (%) [2]: 1 (16.7)
- General disorders and administration site conditions, Events [2]: 0
- General disorders and administration site conditions, n (%) [2]: 0
- Headache, Events [2]: 1
- Headache, n (%) [2]: 1 (16.7)
- High density lipoprotein cholesterol decreased, Events [2]: 0
- High density lipoprotein cholesterol decreased, n (%) [2]: 0
- Investigations, Events [2]: 0
- Investigations, n (%) [2]: 0
- Nausea, Events [2]: 0
- Nausea, n (%) [2]: 0
- Nervous system disorders, Events [2]: 1
- Nervous system disorders, n (%) [2]: 1 (16.7)
- Participants with any TEAE, Events [2]: 2
- Participants with any TEAE, n (%) [2]: 2 (33.3)
- Vomiting, Events [2]: 0
- Vomiting, n (%) [2]: 0
- Abdominal pain, Events [3]: 0
- Abdominal pain, n (%) [3]: 0
- Chills, Events [3]: 0
- Chills, n (%) [3]: 0
- Feces soft, Events [3]: 0
- Feces soft, n (%) [3]: 0
- Gastrointestinal disorders, Events [3]: 0
- Gastrointestinal disorders, n (%) [3]: 0
- General disorders and administration site conditions, Events [3]: 0
- General disorders and administration site conditions, n (%) [3]: 0
- Headache, Events [3]: 0
- Headache, n (%) [3]: 0
- High density lipoprotein cholesterol decreased, Events [3]: 0
- High density lipoprotein cholesterol decreased, n (%) [3]: 0
- Investigations, Events [3]: 0
- Investigations, n (%) [3]: 0
- Nausea, Events [3]: 0
- Nausea, n (%) [3]: 0
- Nervous system disorders, Events [3]: 0
- Nervous system disorders, n (%) [3]: 0
- Participants with any TEAE, Events [3]: 0
- Participants with any TEAE, n (%) [3]: 0
- Vomiting, Events [3]: 0
- Vomiting, n (%) [3]: 0
- Abdominal pain, Events [4]: 0
- Abdominal pain, n (%) [4]: 0
- Chills, Events [4]: 0
- Chills, n (%) [4]: 0
- Feces soft, Events [4]: 0
- Feces soft, n (%) [4]: 0
- Gastrointestinal disorders, Events [4]: 0
- Gastrointestinal disorders, n (%) [4]: 0
- General disorders and administration site conditions, Events [4]: 0
- General disorders and administration site conditions, n (%) [4]: 0
- Headache, Events [4]: 0
- Headache, n (%) [4]: 0
- High density lipoprotein cholesterol decreased, Events [4]: 0
- High density lipoprotein cholesterol decreased, n (%) [4]: 0
- Investigations, Events [4]: 0
- Investigations, n (%) [4]: 0
- Nausea, Events [4]: 0
- Nausea, n (%) [4]: 0
- Nervous system disorders, Events [4]: 0
- Nervous system disorders, n (%) [4]: 0
- Participants with any TEAE, Events [4]: 0
- Participants with any TEAE, n (%) [4]: 0
- Vomiting, Events [4]: 0
- Vomiting, n (%) [4]: 0
- Abdominal pain, Events [5]: 0
- Abdominal pain, n (%) [5]: 0
- Chills, Events [5]: 0
- Chills, n (%) [5]: 0
- Feces soft, Events [5]: 0
- Feces soft, n (%) [5]: 0
- Gastrointestinal disorders, Events [5]: 0
- Gastrointestinal disorders, n (%) [5]: 0
- General disorders and administration site conditions, Events [5]: 0
- General disorders and administration site conditions, n (%) [5]: 0
- Headache, Events [5]: 0
- Headache, n (%) [5]: 0
- High density lipoprotein cholesterol decreased, Events [5]: 6
- High density lipoprotein cholesterol decreased, n (%) [5]: 6 (100)
- Investigations, Events [5]: 6
- Investigations, n (%) [5]: 6 (100)
- Nausea, Events [5]: 0
- Nausea, n (%) [5]: 0
- Nervous system disorders, Events [5]: 0
- Nervous system disorders, n (%) [5]: 0
- Participants with any TEAE, Events [5]: 6
- Participants with any TEAE, n (%) [5]: 6 (100)
- Vomiting, Events [5]: 0
- Vomiting, n (%) [5]: 0
- High density lipoprotein cholesterol decreased, n (%) (Cohort E 1,000 mg single dose, n = 6, listed as ensitrelvir): 6/6
- Abdominal pain, Events [6]: 0
- Abdominal pain, n (%) [6]: 0
- Chills, Events [6]: 1
- Chills, n (%) [6]: 1 (16.7)
- Feces soft, Events [6]: 1
- Feces soft, n (%) [6]: 1 (16.7)
- Gastrointestinal disorders, Events [6]: 3
- Gastrointestinal disorders, n (%) [6]: 1 (16.7)
- General disorders and administration site conditions, Events [6]: 1
- General disorders and administration site conditions, n (%) [6]: 1 (16.7)
- Headache, Events [6]: 1
- Headache, n (%) [6]: 1 (16.7)
- High density lipoprotein cholesterol decreased, Events [6]: 6
- High density lipoprotein cholesterol decreased, n (%) [6]: 6 (100)
- Investigations, Events [6]: 6
- Investigations, n (%) [6]: 6 (100)
- Nausea, Events [6]: 1
- Nausea, n (%) [6]: 1 (16.7)
- Nervous system disorders, Events [6]: 1
- Nervous system disorders, n (%) [6]: 1 (16.7)
- Participants with any TEAE, Events [6]: 11
- Participants with any TEAE, n (%) [6]: 6 (100)
- Vomiting, Events [6]: 1
- Vomiting, n (%) [6]: 1 (16.7)
- High density lipoprotein cholesterol decreased, n (%) (Cohort J 2,000 mg single dose, n = 6, listed as ensitrelvir): 6/6
- overall tolerability (single and multiple doses, all doses tested, healthy participants): well tolerated across all doses tested
- severity of adverse events (single dose 20–2,000 mg, cohorts A–E and J): a All adverse events were mild.
